Data reported in paper PMC8980233, “Differentiating the Neuropharmacological Properties of Nicotinic Acetylcholine Receptor-Activating Alkaloids” (Frontiers in Pharmacology, 2022).
“Also recorded” adds a separate entry of the source.

Key:
α7 nAChR [1] = target: T1, α7 nAChR (Homo sapiens, UniProt P36544); experiment: Radioligand displacement binding assay
Method: All binding and functional assays for molecular target characterization were conducted by Eurofins Cerep SA (Celle-Lévescault, France) and Eurofins Panlabs Discovery Services Taiwan, Ltd. (New Taipei City, Taiwan) using their standard in vitro binding and functional assays (Supplementary Material S2). […] Negative values were considered to be an artifact arising from, for example, compounds interfering with the assay readout.
The radioligand displacement binding assays employed the gold standard filtration method using membrane preparations from stable cell lines (HEK-293 or CHO cells) expressing human or rodent target proteins to determine the interaction of the compounds with specific receptors, channels, and transporters. For this purpose, the competitive binding of test compounds against a [^125I]- [^3H]-, or [^35S]-labelled agonist and/or antagonist was determined.
Assay Source Ligand Conc. Kd Non Specific Incubation Detection Bibl.
N neuronal α7 (h) SH-SY5Y cells [125I]α-bungarotoxin 0.05 nM 0.34 nM α-bungarotoxin 120 min Scintillation 347
(antagonist radioligand) (human (1 µM) 37°C counting

α7 nAChR [2] = target: T1, α7 nAChR; experiment: nAChR functional assay, automated patch-clamp; assay type: cell-based; conditions: mean ± S.D.; no effect = up to 33 μM
Method: Electrophysiological responses were recorded using an automated patch-clamp Patchliner Octo® system (Nanion Technologies, Munich, Germany) equipped with two EPC-10 Quadro patch-clamp amplifiers (HEKA Elektronik, Lambrecht, Germany) as described by ([Alijevic et al., 2020]). In brief, Chinese hamster ovary (CHO) or human embryonic kidney-293 (HEK-293) cells stably expressing human nAChRs (Charles River Laboratories, Wilmington, MA, United States) were maintained in DMEM/F12 medium (Gibco, Thermo Fisher Scientific, Waltham, MA, United States) supplemented with 10% heat-inactivated fetal bovine serum (FBS; Gibco) and penicillin–streptomycin (100 U/mL and 0.1 mg/ml, respectively; Sigma-Aldrich, St. Louis, MO, United States) at 37°C in 5% CO2 and 70% humidity. The following selection antibiotics were used for the cell lines: G418 (0.25 mg/ml; Sigma-Aldrich) and Zeocin^TM (0.4 mg/ml; InvivoGen, San Diego, CA, United States) for α7/Ric3 nAChR and α3β4 nAChR cells; puromycin (8 μg/ml; InvivoGen) and hygromycin B (0.4 mg/ml; Gibco) for α4β2 nAChR cells; and G418 (0.5 mg/ml), puromycin (0.25 μg/ml), and hygromycin B (0.02 mg/ml) for α6/3β2/β3 nAChR cells. The cells were used for characterizing nAChR pharmacology, because no endogenous ionotropic nicotinic receptors are found ([Roncarati et al., 2008]; [Papke and Smith-Maxwell, 2009]; [Kirsch et al., 2016]; [Scheffel et al., 2018]). The subunit distributions in the cells have been previously described ([Alijevic et al., 2020]). The human nAChRs were selected due to the lack of commercially available nAChR expression systems for mouse or zebrafish. The translatability of findings between zebrafish and human nAChR activities have been previously reported ([Papke and Smith-Maxwell, 2009]; [Papke et al., 2012]; [Alijevic et al., 2020]).
On the day of the experiment, nAChR-expressing cells were suspended in extracellular solution (in mM: 140 NaCl, 4KCl, one MgCl2, two CaCl2, five glucose, and 10 HEPES, adjusted to pH 7.4 with NaOH (298 mOsmol)), then placed in the Patchliner Octo® system. The internal solution contained in mM: 50 KCl, 60 kF, 10 NaCl, 20 EGTA, and 10 HEPES, adjusted to pH 7.2 with KOH (285 mOsmol). […] Data were analyzed using the Patchmaster software and corrected for leak current. The data acceptance criteria were as follows: seal resistance >100 MΩ; seal resistance loss variation <50%; access resistance <20 MΩ; and minimum current amplitude elicited by maximal effect concentration acetylcholine >50 pA. Offline data analysis was performed in OpenOffice™ (v4.1.2; The Apache Software Foundation, Wakefield, MA, United States). Data are presented as mean ± S.D. All experiments were performed at room temperature (24°C) and repeated at least three times. Igor Pro (v6.2.2.2; WaveMetrics, Lake Oswego, OR, United States) or Prism (v8.2.1) were used for assessing the concentration–response curves.

T1 sequence (P36544 23-502): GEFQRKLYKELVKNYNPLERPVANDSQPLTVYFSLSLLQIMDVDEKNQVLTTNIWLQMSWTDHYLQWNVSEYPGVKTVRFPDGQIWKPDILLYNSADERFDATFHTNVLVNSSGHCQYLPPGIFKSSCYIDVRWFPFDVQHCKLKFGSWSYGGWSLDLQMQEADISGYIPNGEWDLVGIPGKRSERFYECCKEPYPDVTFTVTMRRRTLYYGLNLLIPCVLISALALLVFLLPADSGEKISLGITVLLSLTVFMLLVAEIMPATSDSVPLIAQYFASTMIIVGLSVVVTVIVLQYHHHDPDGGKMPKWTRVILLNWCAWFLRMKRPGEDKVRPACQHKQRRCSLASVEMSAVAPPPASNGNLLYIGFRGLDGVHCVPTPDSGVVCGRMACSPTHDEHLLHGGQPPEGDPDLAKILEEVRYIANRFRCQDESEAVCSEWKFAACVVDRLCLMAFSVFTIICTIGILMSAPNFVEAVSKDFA

With `CN1C(=O)CC[C@H]1c1cccnc1` [Cotinine, (-)-cotinine] the “binding for α7 nAChR” value (α7 nAChR [1]) was “undetectable” and the “α7 nAChR EC50 in µM” value (α7 nAChR [2]) was “no detectable activities; also recorded: No effect*”.
